Experimental findings from patent publication US11484601B2, “Targeting M2-like tumor-associated macrophages by using melittin-based proapoptotic peptide” (TWI[…]., priority 2018, dated 2022) are described below.

In assay [1] the test system is mitochondria of M2-type macrophage. The assay can be described thus: Confocal localisation of TMR-conjugated peptides in mitochondria. The assay is classed as cell-based, mouse. Conditions: 1 μM TMR-conjugated peptide, 2 hours; for presence in mitochondria by image measurement: MitoTracker green. The protocol:
In order to identify the invasion and location of MEL-dKLA into the mitochondria of M2-type macrophage, those were identified using fluorescence microscopy via staining. Further, PASCAL 5 LSM image measurement was performed for quantitative analysis.
More specifically, RAW264.7 macrophage was differentiated into M2 which in turn was incubated together with 1 μM TMR-conjugated dKLA, MEL or MEL-dKLA for 2 hours. The peptides that were not conjugated thereto were washed off, and then the cells were stained with 250 nM MitoTracker green (Invitrogen) for 30 minutes. After the staining, the cells were stained for 10 minutes in PBS to which 4 μg/mL 4′6-diamidino-2-phenylidole (DAPI; Sigma-Aldrich, MO, USA) was added. The stained cells were measured with a laser scanning confocal microscope (Carl Zeiss, Germany). The location of MEL-dKLA in the mitochondria was measured with an LSMS image meter (Carl Zeiss).

The subject of another assay is LLC tumor cells. The assay can be described thus: LLC lung cancer tumor model in C57BL/6 mice. The assay is classed as in vivo, mouse. As to conditions: 175 nmol/kg intraperitoneally. As for the experimental part:
More specifically, C57BL/6 wild-type mice were purchased from DBL (Korea). LLC tumor cells were mixed with Matrigel (Corning, NY, USA) and then the mixture was injected into the right flank of mice (5×10^4 cells/mouse). Five days after tumor cell injection, the recombinant dKLA, MEL, and MEL-dKLA peptides were injected intraperitoneally thereto for 3 days for a total of three times (175 nmol/kg dosage/weight per each time). All tumor tissues were harvested 12 days after the injection. The animal experiment was approved by the Animal Management Committee of Kyunghee University [KHUASP(SE)-17-087]. The animals were managed via autonomous feeding of water and food under a 12-hour light/dark cycle environment without pathogens.

Assay [2] relates to 4T1-luciferase breast cancer cells. Description: 4T1-luciferase breast cancer in mammary gland of NOD-SCID mice. The assay is classed as in vivo, mouse. Conditions: 175 nmol/kg once every 3 days; for luminescence level at the metastasis site / metastasis area (lymph nodes of the armpit and lungs): 4 weeks; for growth of breast cancer cells in mammary gland: NOD-SCID mice. As for the experimental part:
More specifically, to identify the effect of MEL-dKLA on tumor growth and metastasis when breast cancer cells were […] into the breast, 4T1-luciferase breast cancer cells (1×10^5) were injected into NOD-SCID mice as immunodeficient mice. From the time point when the tumor mass began to grow in the mammary gland No. 4 on 5 days after the injection, 175 nmol/kg of each of PBS, dKLA, MEL and MEL-dKLA was injected into each group once every 3 days. To measure the growth of the tumor, the size of the tumor was measured once every 3 days using a caliper device, and all tumor tissues were collected 4 weeks after the injection. On 4 weeks after the tumor transplantation, in order to identify metastasis of the tumor to the lymph nodes and lungs, D-luciferin as a substrate of luciferase enzyme was diluted to a concentration of 40 mg/ml and then, 100 μl thereof was administered to mice in an intraperitoneal administration mode. After reacting for about 15 minutes, luminescence was measured using NightOwl (Berthold Technologies) as an in vivo imaging device. Then, we analyzed the luminescence with pictures of mice to identify the level of metastasis to the whole body and lungs. The animal experiment was approved by the Animal Management Committee of Kyunghee University [KHUASP(SE)-18-133], and the animals were managed via autonomous feeding of water and food under a 12-hour light/dark cycle environment without pathogens.

The test system of another assay is CCL22. Description: Quantitative real-time PCR of lung tissue, CCL22. The assay is classed as in vivo, mouse. As to conditions: vs PBS-treated group. The protocol: (§1) To measure the ability of MEL-dKLA to inhibit tumor metastasis, expression levels of CD44 known to interact with extracellular matrix ligand to promote metastasis and invasion and thus to be widely expressed in cancer, CCL22 known as M2-type macrophage marker, HIF-1α known as a marker of angiogenesis, metastasis and invasion, Ym1 as a marker of M2-type macrophage, and MMP-9 involved in the migration and settlement of tumor cells were measured via quantitative real-time PCR.
(§2) More specifically, RNA was extracted from lung tissue using an easy-BLUE RNA extraction kit (iNtRON Biotechnology, Korea). Then, cDNA was synthesized according to the manual for cyclescript reverse transcriptase (Bioneer, Korea). cDNA synthesis conditions were as follows: 15 seconds at 95, 10 seconds at 55, and 10 seconds at 72. Each reaction was conducted 3 times. […] Quantitative real-time PCR was performed using the SensiFAST SYBR no-Rox kit (Bioline, Korea).

The subject of another assay is Ym1. The assay can be described thus: Quantitative real-time PCR of lung tissue, Ym1. The assay is classed as in vivo, mouse. Conditions: vs PBS-treated group. The protocol:
as §1, §2

The subject of assay [3] is M2-type tumor-associated macrophage (CD45+F4/80+CD206+). Description: Flow cytometry of tumor tissue, M2-type TAM. The class given is in vivo, mouse. As for the experimental part: More specifically, the tumor cells were thinly crushed and separated from each other in DMEM to which DNasel (1 U/mL) and collagenase D (1 mg/mL) were added. The tissue was gently agitated for 1 hour at 37° C., and separated using a […] nylon mesh filter. Red blood cells were dissolved in Phrmlyse buffer (BE bioscience). Individual cells passed through a 40-μm nylon mesh filter and then were stained with following antibodies: CD4+ T cell (CD45+CD4+CD8−), CD8+ T cell (CD45+CD4−CD8+), Foxp3+ regulatory T cell (CD4+CD25+Foxp3+), dendritic cell (CD45+CD11b+CD11c+), and M1 (CD45+F4/80+CD86+) or M2 macrophage (CD45+F4/80+CD206+): anti-CD45-FITC, anti-CD4-phycoerythrin (PE), anti-CD8-allophycocyanin (APC), anti-CD4-FITC, anti-CD25-PE, anti-Foxp3-Alexa Fluor647, anti-CD11b-APC, anti-CD11c-APCcy7, anti-Grl-PEcy7, anti-CD86-PEcy7, and anti-CD206-APC antibodies. Annexin-V was previously treated to measure the cell percentage of macrophages.
(In general: A flow cytometer gives signals particle by particle.)

On to “d[KLAKLAKKLAKLAK] (D-amino acids) [dKLA, pro-apoptotic peptide KLA, used as control]”, for which, in assay [1], the correlation with mitochondria result was “did not have any association with mitochondria” and the “presence in mitochondria by image measurement” value is “a small amount of dKLA was coupled to the cells”. Further, the tumor growth result with LLC tumor cells (three times, compared to PBS control) was “tumor steadily grew”. Moreover, in assay [2], the “luminescence level at the metastasis site” value is “exhibited a tendency to decrease but did not exhibit significance”; the “metastasis area (lymph nodes of the armpit and lungs)” value is listed as “no significant difference from the PBS-treated group”; the “growth of breast cancer cells in mammary gland” value is “did not occur significantly”. Moreover, in the assay on CCL22, the “expression of CCL22” value is listed as “not significantly different”. Further, in the assay with Ym1, the “expression of Ym1” value is reported as “increased significantly”. The “proportion of M2-type tumor-associated F4/80+ CD206+ TAM in CD45+ leukocytes” value in assay [3] was “about 20%”.

In the case of `CC[C@H](C)[C@H](NC(=O)CN)C(=O)NCC(=O)N[C@@H](C)C(=O)N[C@H](C(=O)N[C@@H](CC(C)C)C(=O)N[C@@H](CCCCN)C(=O)N[C@H](C(=O)N[C@@H](CC(C)C)C(=O)N[C@H](C(=O)N[C@H](C(=O)NCC(=O)N[C@@H](CC(C)C)C(=O)N1CCC[C@H]1C(=O)N[C@@H](C)C(=O)N[C@@H](CC(C)C)C(=O)N[C@H](C(=O)N[C@@H](CO)C(=O)N[C@@H](Cc1c[nH]c2ccccc12)C(=O)N[C@H](C(=O)N[C@@H](CCCCN)C(=O)N[C@@H](CCCNC(=N)N)C(=O)N[C@@H](CCCCN)C(=O)N[C@@H](CCCNC(=N)N)C(=O)N[C@@H](CCC(N)=O)C(=O)N[C@@H](CCC(N)=O)C(N)=O)[C@@H](C)CC)[C@@H](C)CC)[C@@H](C)O)[C@@H](C)O)C(C)C)C(C)C` [MEL], in assay [1], the correlation with mitochondria result is given as “did not have any association with mitochondria” and the “presence in mitochondria by image measurement” value is reported as “could not be identified therein”. Besides, the tumor size result in the assay on LLC tumor cells is “significantly reduced”. In assay [2], the “luminescence level at the metastasis site” value is “exhibited a tendency to decrease but did not exhibit significance”; the “metastasis area (lymph nodes of the armpit and lungs)” value is on record as “no significant difference from the PBS-treated group”; the “growth of breast cancer cells in mammary gland” value is reported as “did not occur significantly”. Moreover, the “expression of CCL22” value in the assay with CCL22 is recorded as “not significantly different”. For the same compound, the “expression of Ym1” value in the assay on Ym1 was “no significant difference”. In assay [3], the “M2-type TAM cells compared to the PBS-treated group” value is “decreased by half” and the “proportion of M2-type tumor-associated F4/80+ CD206+ TAM in CD45+ leukocytes” value was “about 10%”.
